# Experimental data taken from PMC2921631 (Analytical biochemistry, 2010).
# What was measured:
# Type in all cases: biochemical
# [1] = target: LRRK2 (human, G2019S mutant) (Homo sapiens, UniProt Q5S007, G2019S); experiment: TR-FRET kinase assay with PLK-peptide, […] h preincubation
# LRRK2 (human, wild-type) = LRRK2 (human, wild-type) (Homo sapiens, UniProt Q5S007); experiment: as above
# [2] = target: LRRK2 (full-length, from BAC-transgenic mouse brain) (Mus musculus, UniProt Q5S006); experiment: TR-FRET kinase assay with PLK-peptide
# LRRK2 (full-length, from BAC-transgenic mouse brain), sequence (Q5S006 whole entry): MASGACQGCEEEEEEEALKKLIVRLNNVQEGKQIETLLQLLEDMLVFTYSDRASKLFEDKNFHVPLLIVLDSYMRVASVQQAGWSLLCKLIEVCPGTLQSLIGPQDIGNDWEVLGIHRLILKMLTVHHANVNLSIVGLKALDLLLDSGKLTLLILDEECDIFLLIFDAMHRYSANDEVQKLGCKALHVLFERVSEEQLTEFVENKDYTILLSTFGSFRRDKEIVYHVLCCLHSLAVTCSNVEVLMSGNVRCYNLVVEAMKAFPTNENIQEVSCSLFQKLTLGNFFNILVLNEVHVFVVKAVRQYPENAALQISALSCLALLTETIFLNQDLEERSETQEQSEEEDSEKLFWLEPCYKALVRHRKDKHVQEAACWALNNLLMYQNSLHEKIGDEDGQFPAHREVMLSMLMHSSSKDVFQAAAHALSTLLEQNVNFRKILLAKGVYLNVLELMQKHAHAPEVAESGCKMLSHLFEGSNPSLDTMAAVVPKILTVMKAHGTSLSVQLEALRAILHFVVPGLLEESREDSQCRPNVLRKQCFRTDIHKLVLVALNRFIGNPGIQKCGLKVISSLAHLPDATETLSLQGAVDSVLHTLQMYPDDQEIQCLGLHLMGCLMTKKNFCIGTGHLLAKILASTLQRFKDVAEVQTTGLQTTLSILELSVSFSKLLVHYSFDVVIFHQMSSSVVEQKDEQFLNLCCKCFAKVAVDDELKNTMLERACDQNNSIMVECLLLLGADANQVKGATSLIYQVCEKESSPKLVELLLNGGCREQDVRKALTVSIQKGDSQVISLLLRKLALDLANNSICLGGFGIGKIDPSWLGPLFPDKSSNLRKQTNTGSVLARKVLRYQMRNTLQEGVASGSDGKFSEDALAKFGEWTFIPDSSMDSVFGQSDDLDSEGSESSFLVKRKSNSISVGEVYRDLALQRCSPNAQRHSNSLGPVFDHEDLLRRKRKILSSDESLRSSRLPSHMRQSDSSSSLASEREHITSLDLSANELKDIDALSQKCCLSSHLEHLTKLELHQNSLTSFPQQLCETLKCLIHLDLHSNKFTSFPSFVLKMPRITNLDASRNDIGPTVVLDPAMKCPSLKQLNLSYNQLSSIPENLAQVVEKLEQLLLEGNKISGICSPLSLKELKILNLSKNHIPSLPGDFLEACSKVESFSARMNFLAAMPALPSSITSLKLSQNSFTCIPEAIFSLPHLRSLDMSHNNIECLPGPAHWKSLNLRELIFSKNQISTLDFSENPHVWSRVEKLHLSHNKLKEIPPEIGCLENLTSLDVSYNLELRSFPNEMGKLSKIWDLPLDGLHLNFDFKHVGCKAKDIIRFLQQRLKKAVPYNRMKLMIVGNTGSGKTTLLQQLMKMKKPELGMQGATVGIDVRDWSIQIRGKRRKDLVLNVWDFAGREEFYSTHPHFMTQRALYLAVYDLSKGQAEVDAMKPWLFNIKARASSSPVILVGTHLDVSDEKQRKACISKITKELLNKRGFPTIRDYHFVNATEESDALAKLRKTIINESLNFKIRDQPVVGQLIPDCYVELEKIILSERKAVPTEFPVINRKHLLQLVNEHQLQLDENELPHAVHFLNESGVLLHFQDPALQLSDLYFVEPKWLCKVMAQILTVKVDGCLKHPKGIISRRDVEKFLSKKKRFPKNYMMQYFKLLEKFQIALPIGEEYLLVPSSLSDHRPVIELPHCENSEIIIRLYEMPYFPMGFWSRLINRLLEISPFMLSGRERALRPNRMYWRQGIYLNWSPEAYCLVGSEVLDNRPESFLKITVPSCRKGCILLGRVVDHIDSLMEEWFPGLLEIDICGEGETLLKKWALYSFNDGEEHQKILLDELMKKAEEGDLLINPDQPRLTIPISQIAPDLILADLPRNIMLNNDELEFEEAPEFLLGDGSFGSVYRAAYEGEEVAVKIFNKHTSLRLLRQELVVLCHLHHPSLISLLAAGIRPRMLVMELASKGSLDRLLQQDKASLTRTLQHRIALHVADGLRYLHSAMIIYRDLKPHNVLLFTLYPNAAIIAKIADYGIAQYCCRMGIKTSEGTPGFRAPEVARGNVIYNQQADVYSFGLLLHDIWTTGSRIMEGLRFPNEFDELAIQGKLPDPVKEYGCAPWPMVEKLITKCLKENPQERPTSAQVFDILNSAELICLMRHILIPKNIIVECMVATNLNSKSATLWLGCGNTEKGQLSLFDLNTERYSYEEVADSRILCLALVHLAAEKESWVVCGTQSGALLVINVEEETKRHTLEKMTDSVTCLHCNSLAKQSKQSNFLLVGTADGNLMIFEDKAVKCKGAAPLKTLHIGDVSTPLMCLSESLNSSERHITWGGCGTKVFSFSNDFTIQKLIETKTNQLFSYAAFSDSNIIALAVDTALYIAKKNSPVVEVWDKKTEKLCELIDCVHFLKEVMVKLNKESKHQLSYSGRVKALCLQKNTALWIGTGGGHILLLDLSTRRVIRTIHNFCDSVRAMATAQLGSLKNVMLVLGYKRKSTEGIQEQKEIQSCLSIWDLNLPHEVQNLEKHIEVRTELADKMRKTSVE
# LRRK2 (human, wild-type), sequence (Q5S007 970-2527): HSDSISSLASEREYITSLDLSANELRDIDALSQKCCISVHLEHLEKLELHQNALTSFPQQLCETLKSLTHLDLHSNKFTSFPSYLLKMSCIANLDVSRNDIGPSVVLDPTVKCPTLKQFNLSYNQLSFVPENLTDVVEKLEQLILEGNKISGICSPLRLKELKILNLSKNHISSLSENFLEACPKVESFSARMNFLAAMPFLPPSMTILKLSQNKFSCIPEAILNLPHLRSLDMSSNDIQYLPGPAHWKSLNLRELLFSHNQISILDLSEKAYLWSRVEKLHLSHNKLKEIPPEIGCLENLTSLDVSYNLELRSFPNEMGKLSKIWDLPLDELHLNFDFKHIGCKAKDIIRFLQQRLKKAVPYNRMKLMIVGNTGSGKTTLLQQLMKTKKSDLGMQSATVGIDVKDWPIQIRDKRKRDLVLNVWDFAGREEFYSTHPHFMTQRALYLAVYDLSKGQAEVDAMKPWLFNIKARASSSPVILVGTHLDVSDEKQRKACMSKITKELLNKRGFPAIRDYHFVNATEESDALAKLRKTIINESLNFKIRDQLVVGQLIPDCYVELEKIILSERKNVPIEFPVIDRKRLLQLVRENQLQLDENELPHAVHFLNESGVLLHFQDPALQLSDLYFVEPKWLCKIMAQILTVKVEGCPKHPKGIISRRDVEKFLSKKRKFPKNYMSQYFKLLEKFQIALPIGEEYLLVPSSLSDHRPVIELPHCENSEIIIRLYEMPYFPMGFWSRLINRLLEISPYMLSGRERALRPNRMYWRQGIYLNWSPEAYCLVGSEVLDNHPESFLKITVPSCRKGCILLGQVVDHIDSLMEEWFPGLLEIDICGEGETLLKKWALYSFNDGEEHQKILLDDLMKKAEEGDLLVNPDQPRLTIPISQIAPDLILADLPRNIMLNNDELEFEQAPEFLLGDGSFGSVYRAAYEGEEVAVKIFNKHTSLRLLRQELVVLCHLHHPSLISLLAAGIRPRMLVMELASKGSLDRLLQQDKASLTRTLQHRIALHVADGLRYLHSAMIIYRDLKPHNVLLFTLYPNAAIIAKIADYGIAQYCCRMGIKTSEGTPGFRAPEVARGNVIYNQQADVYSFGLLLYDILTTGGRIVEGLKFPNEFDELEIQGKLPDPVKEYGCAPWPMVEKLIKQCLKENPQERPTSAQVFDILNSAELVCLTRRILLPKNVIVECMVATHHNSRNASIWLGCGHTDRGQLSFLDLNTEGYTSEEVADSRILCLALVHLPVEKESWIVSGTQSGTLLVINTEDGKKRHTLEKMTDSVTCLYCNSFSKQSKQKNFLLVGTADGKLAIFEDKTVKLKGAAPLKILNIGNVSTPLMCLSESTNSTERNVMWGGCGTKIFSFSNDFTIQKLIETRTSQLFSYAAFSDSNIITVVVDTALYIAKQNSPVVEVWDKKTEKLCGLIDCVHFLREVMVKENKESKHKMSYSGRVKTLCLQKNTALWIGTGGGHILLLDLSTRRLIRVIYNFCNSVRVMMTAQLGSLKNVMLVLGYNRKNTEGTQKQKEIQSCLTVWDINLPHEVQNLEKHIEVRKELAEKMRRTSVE
# LRRK2 (human, G2019S mutant), sequence (Q5S007 970-2527 G2019S): as the sequence (Q5S007 970-2527) above, with G1050S counted along it
substance,measurement,setting,value
LDN-22684,IC50,[1],6.9 ± 1 µM
same,IC50,"LRRK2 (human, wild-type)",6.1 ± 0.8 µM
same,IC50,[2],5.4 ± 0.8 µM
